Results published in patent WO2010003376A1, “Methods for treatment and/or prevention of cancer with andrographolide (and) and use thereof” (Chinese University of Hong Kong CUHK, priority 2008, dated 2010).
pIC50: −log10 of the molar value. Where two headings read alike, the source gives them in different places.

Tests used:
[1] = test system: hepatocarcinogenesis in rats (DEN & CCl4); assay: Gross examination of rat liver, DEN/CCl4 hepatocarcinogenesis; type: in vivo
Mdm2 = assay: Western blot of Mdm2 in rat liver nuclei; type: in vivo; details: both experiments, 10 mg/kg orally, vs positive control (p < 0.05)
GST-P = assay: Immunohistochemical staining of GST-P foci in rat liver; type: in vivo
p53 mRNA = assay: Semi-quantitative RT-PCR of p53 mRNA in rat liver; type: in vivo; details: both experiments, 10 mg/kg orally, vs positive control (p < 0.05)
[2] = test system: WRL 68, human normal liver embryo cells; assay: Neutral red assay (cell viability), WRL 68; type: cell-based; details: for pIC50: Homo sapiens, WRL68, read-out: IC50 (concentration that reduces cell viability by 50%)
wild type p53 = assay: Immunoprecipitation and western blot of wild type p53 in rat liver nuclei; type: in vivo; details: 10 mg/kg orally
Bcl-2 = assay: Western blot of Bcl-2 in rat liver; type: in vivo; details: both experiments, 10 mg/kg orally
[3] = test system: gene expressions of HepG2 cells; assay: cDNA microarray analysis of gene expression (human toxicology and drug metabolism); type: cell-based; details: 16 μM, 48 hrs, vs control
PCNA = assay: Western blot of PCNA in rat liver; type: in vivo; details: 10 mg/kg orally; for PCNA expression (PCNA : β-actin ratio): vs positive control
Mdm2 mRNA = assay: Semi-quantitative RT-PCR of Mdm2 mRNA in rat liver; type: in vivo; details: both experiments, 10 mg/kg orally, vs positive control (p < 0.05)
[4] = test system: HepG2 cells, the human liver cancer cells; assay: Neutral red assay (cell viability), HepG2; type: cell-based; details: for pIC50: Homo sapiens, read-out: IC50 (concentration that reduces cell viability by 50%)
[5] = test system: total p53 (wild type and mutant); assay: Western blot of total p53 in rat liver nuclei; type: in vivo; details: 10 mg/kg orally
rat liver (DEN & CCl4) = assay: Hematoxylin & Eosin staining of rat liver sections; type: in vivo; details: 10 mg/kg orally
HepG2 cells [6] = assay: DNA fragmentation (DNA gel electrophoresis); type: cell-based, human; details: 50 μM, 72 hrs
Bax = assay: Western blot of Bax in rat liver; type: in vivo; details: both experiments, 10 mg/kg orally
p21 (Waf1/Cip1/Sdi1) = assay: Western blot of p21 in rat liver; type: in vivo; details: both experiments, 10 mg/kg orally, vs positive control
HepG2 cells [7] = assay: Flow cytometry (cell cycle analysis, PI staining); type: cell-based, human
[8] = test system: liver damage in rats (DEN & CCl4); assay: Serum AST and ALT assays, DEN/CCl4 hepatocarcinogenesis; type: in vivo, rat; details: 10 mg/kg orally
[9] = test system: hepatocarcinogenesis in rats (DEN & CCl4); assay: Relative liver weight, DEN/CCl4 hepatocarcinogenesis; type: in vivo, rat; details: both promotion and progression, 10 mg/kg orally
[10] = test system: Clone 9, rat normal liver cells; assay: Neutral red assay (cell viability), Clone 9; type: cell-based; details: for pIC50: Rattus norvegicus, read-out: IC50 (concentration that reduces cell viability by 50%)
[11] = progression experiment, p < 0.05

C=C1CC[C@@H]2[C@](C)(CO)[C@H](O)CC[C@@]2(C)[C@@H]1C/C=C1/C(=O)OC[C@H]1O [AND, andrographolide]
gross appearance of liver ([1]; progression experiment, 10 mg/kg orally, 56th week): some nodules present on the surface of the AND-treated livers, but the structure of the livers generally resembled that of the normal livers | gross appearance of liver ([1]; promotion experiment, 10 mg/kg orally once daily, 28 weeks): had a smooth surface and generally resembled the negative control livers | levels of Mdm2 protein (Mdm2 : β-actin ratio) (Mdm2): significant decrease | number and area of GST-P positive foci (GST-P; 10 mg/kg for 24 and 52 weeks, promotion and progression stages): a decrease in the number and area of GST-P positive foci | GST-P expression in liver section (GST-P; promotion experiment, 10 mg/kg orally): the expression of GST-P was present but the affected area was reduced | p53 mRNA expression (p53 : β-actin) (p53 mRNA): significant reduction | pIC50 ([2]; WRL 68, 24 hrs): 4.24 | pIC50 ([2]; WRL 68, 48 hrs): 4.52 | pIC50 ([2]; WRL 68, 72 hrs): 4.46 | cytotoxicity ([2]; WRL 68, at a concentration of 18 μM (Fig. 2)): significant cytotoxicity was also detectable | level of wild type p53 (wt. p53 : β-actin ratio) (wild type p53; progression experiment, vs positive control (p < 0.05)): a significant increase | level of wild type p53 (wt. p53 : β-actin ratio) (wild type p53; promotion experiment, vs positive control): no significant difference | Bcl-2 expression (Bcl-2): an increase in Bcl-2 expression | Bcl-2 protein expression (Bcl-2 : β-actin ratio) (Bcl-2; vs positive control (p < 0.05)): significantly lower | expression of BCL2L2 (Bcl-w) gene [3]: down-regulated | expression of BCL2 gene [3]: down-regulated | expression of CCND1 gene [3]: down-regulated | expression of CHEK2 gene [3]: down-regulated | expression of CYP 2A6 gene [3]: down-regulated | expression of CYP 2D6 gene [3]: down-regulated | expression of IL1B gene [3]: under-expressed | expression of NFKB2 gene [3]: under-expressed | expression of NQO1 (NAD(P)H dehydrogenase quinone 1) gene [3]: up-regulated | expression of RB1 gene [3]: up-regulated | expression of SOD1 (superoxide dismutase 1) gene [3]: up-regulated | expression of TYMS (thymidylate synthetase) gene [3]: up-regulated | expression of XDH (xanthine dehydrogenase) gene [3]: up-regulated | number of genes down-regulated 3-folds or more [3]: forty-two | number of genes up-regulated 3-folds or more [3]: six | PCNA expression (PCNA; both experiments): reduced in both experiments | PCNA expression (PCNA : β-actin ratio) (PCNA; progression experiment): The level of PCNA expression in DEN-CCl4 treated rat was found to be significantly higher than that in the negative control and AND-treated groups | PCNA expression (PCNA : β-actin ratio) (PCNA; promotion experiment): no significant difference | Mdm2 mRNA expression (Mdm2 : β-actin) (Mdm2 mRNA): significantly reduced | inhibitory effect on the proliferation of HepG2 ([4]; HepG2, human liver cancer cell line (Fig. 1)): significantly inhibitory effect | pIC50 ([4]; HepG2, 24 hrs): 4.76 | pIC50 ([4]; HepG2, 48 hrs): 4.80 | pIC50 ([4]; HepG2, 72 hrs): 4.77 | IC50 for HepG2 cells compared with WRL 68 cells ([4]; all three time periods (24, 48 and 72 hrs), P < 0.05): significantly lower | total p53 protein level (discussion) ([5]; AND-treated group): the total p53 protein was increased | levels of total p53 protein expression ([5]; both experiments, vs negative control (no significant difference)): higher levels of total p53 protein expression | levels of total p53 (total p53 : β-actin ratio) ([5]; both experiments, vs positive control): no significant difference | liver histology (H & E staining) (rat liver (DEN & CCl4); progression experiment): normal alignment of hepatocytes around central vein | liver histology (H & E staining) (rat liver (DEN & CCl4); promotion experiment): Liver structure was restored and hepatocyte arrangement was not as distorted as that of the positive control sections. Vacuolization was reduced and distinct cytoplasm was visible | DNA fragmentation (HepG2 cells [6]): fragmentation at around 200 bp was detected | Bax expression (Bax): a reduction of Bax expression | protein levels of Bax (Bax : β-actin ratio) (Bax; vs positive control (p < 0.05)): significantly increased | levels of p21 (p21 : β-actin ratio) (p21 (Waf1/Cip1/Sdi1)): higher than positive control groups, but no significant difference is observed | percentage of cells suspended in the sub G1 phase of the cell cycle (HepG2 cells [7]; 25 μM (Fig. 7, 48 hrs)): 13.1% | accumulation of cells in G0/G1 phase of the cell cycle (HepG2 cells [7]; 25 μM, 48 hrs (Fig. 7)): 67.1% | populations of cells suspended in S and G2/M phases (HepG2 cells [7]; 12.5 and 25 μM AND, 48 hrs, vs control (P < 0.05)): significantly decreased | accumulation of cells in the sub G1 and G0/G1 phases (HepG2 cells [7]; 12.5 and 25 μM AND, 48 hrs, vs control cells): significantly induced the accumulation of cells | cells suspended in sub G1 phase (HepG2 cells [7]; 20 and 25 μM AND, 24 hrs, vs 1% DMSO): more cells were suspended in sub Gi phase than those treated with DMSO only | population of cells suspended in G0/G1, S and G2/M phases (HepG2 cells [7]; 20 and 25 μM AND, 24 hrs, vs control cells (P > 0.05)): no significant changes | serum ALT level [8, 11]: significant reduction | serum AST level [8, 11]: significant reduction | serum ALT level ([8]; promotion experiment, p < 0.01): significant reduction | serum AST level ([8]; promotion experiment, p < 0.01): significant reduction | relative liver weight (liver weight/body weight) ([9]; vs negative control): No significant difference | relative liver weight (liver weight/body weight) ([9]; vs positive control): significant reduction | cytotoxicity ([10]; Clone 9, at a concentration of 18 μM (Fig. 3)): significant cytotoxicity was also detectable | pIC50 ([10]; Clone 9, 24 hrs): 4.66 | pIC50 ([10]; Clone 9, 48 hrs): 4.74 | pIC50 ([10]; Clone 9, 72 hrs): 4.74
